Experimental data as given in patent US20230093861A1, “RAPAMYCIN ANALOGS AS MTOR INHIBITORS” (Revolution Medicines, Inc., priority 2017, published 2023).
Where two headings read alike, the source gives them in different places.

What was measured:
[1] = system: P-Akt (S473); assay: Cell based AlphaLISA assay, inhibition of P-Akt (S473) (mTORC2 substrate phosphorylation) in MDA-MB-468 cells; conditions: Homo sapiens, AlphaLISA, two to four hours at 37° C., read-out: pIC50 for Inhibition of mTORC1 and mTORC2 Substrate Phosphorylation, p-AKT 1/2/3 -(S473) (converted)
Protocol: (§1) Cell Based AlphaLISA Assays for Determining IC50 for Inhibition of P-Akt (S473), P-4E-BP1 (T37/46), and P-P70S6K (T389) in MDA-MB-468 Cells
(§2) mTOR Kinase Cellular Assay
(§3) To measure functional activity of mTORC1 and mTORC2 in cells the phosphorylation of 4EBP1 (Thr37/46) and P70S6K (Thr389), and AKT1/2/3 (Ser473) was monitored using AlphaLisa SureFire Ultra Kits (Perkin Elmer). […] Incubations were terminated by removal of the assay buffer and addition of lysis buffer provided with the assay kit. Samples were processed according to the manufacturer's instructions. The Alpha signal from the respective phosphoproteins was measured in duplicate using a microplate reader (Envision, Perkin-Elmer or Spectramax M5, Molecular Devices). Inhibitor concentration response curves were analyzed using normalized IC50 regression curve fitting with control based normalization.

[2] = system: P-P70S6K (T389); assay: Cell based AlphaLISA assay, inhibition of P-P70S6K (T389) (mTORC1 substrate phosphorylation) in MDA-MB-468 cells; conditions: Homo sapiens, 4 h, AlphaLISA, two to four hours at 37° C., read-out: pIC50 for Inhibition of mTORC1 and mTORC2 Substrate Phosphorylation, P-P70S6K-(T389) (converted)
Protocol: as §1, §2, §3

[3] = system: P-4E-BP1 (T37/46); assay: Cell based AlphaLISA assay, inhibition of P-4E-BP1 (T37/46) (mTORC1 substrate phosphorylation) in MDA-MB-468 cells; conditions: Homo sapiens, AlphaLISA, two to four hours at 37° C., read-out: pIC50 for Inhibition of mTORC1 and mTORC2 Substrate Phosphorylation, P-4E-BP1-(T37/46) (converted)
Protocol: as §1, §2, §3

Structure (SMILES)	IC50 ([1]; MDA-MB-468, 4 h)	IC50 [2]	IC50 ([3]; MDA-MB-468, 4 h)	IC50 ([1]; 4 h)	IC50 ([3]; 4 h)
CO[C@H]1C[C@@H]2CC[C@@H](C)[C@@](O)(O2)C(=O)C(=O)N2CCCC[C@H]2C(=O)O[C@H]([C@H](C)C[C@@H]2CC[C@H](n3cc(COC(=O)NCCOCCOCCOCCC(=O)NCCOCCOCCC(=O)NCCCCn4nc(-c5cc6cc(O)ccc6[nH]5)c5c(N)ncnc54)nn3)[C@H](OC)C2)C[C@@H](OC)[C@H](C)/C=C(\C)[C@@H](O)[C@@H](OC)C(=O)[C@H](C)C[C@H](C)/C=C/C=C/C=C/1C [Example 144]	> 1 µM	0.01 to 1 µM	> 1 µM	–	–
COC(=O)N[C@H]1C[C@@H]2CC[C@@H](C)[C@@](O)(O2)C(=O)C(=O)N2CCCC[C@H]2C(=O)O[C@H]([C@H](C)C[C@@H]2CC[C@@H](OCCCCc3cn(CCOCCOCCOCCOCCOCCOCCOCCOCCC(=O)NCCCCn4nc(-c5cnc6[nH]ccc6c5)c5c(N)ncnc54)nn3)[C@H](OC)C2)CC(=O)[C@H](C)/C=C(\C)[C@@H](O)[C@@H](OC)C(=O)[C@H](C)C[C@H](C)/C=C/C=C/C=C/1C [Example 81]	0.0316 to 1 µM	0.001 to 0.01 µM	0.00316 to 0.0316 µM	–	–
CCO[C@@H]1C[C@@H]([C@H](C)C[C@@H]2CC[C@H](n3cc(COC(=O)NCCOCCOCCOCCC(=O)NCCOCCOCCOCCC(=O)NCCCCn4nc(-c5cc6cc(O)ccc6[nH]5)c5c(N)ncnc54)nn3)[C@H](OC)C2)OC(=O)[C@@H]2CCCCN2C(=O)C(=O)[C@]2(O)O[C@@H](CC[C@H]2C)C[C@H](OC)/C(C)=C/C=C/C=C/[C@@H](C)C[C@@H](C)C(=O)[C@H](OC)[C@H](O)/C(C)=C/[C@H]1C [Example 150]	> 1 µM	0.01 to 1 µM	0.0316 to 1 µM	–	–
CO[C@H]1C[C@@H]2CC[C@@H](C)[C@@](O)(O2)C(=O)C(=O)N2CCCC[C@H]2C(=O)O[C@H]([C@H](C)C[C@@H]2CC[C@H](n3cc(COC(=O)NCCOCCOCCOCCC(=O)NCCOCCOCCOCCOCCC(=O)NCCCCn4nc(-c5ccc6oc(N)nc6c5)c5c(N)ncnc54)nn3)[C@H](OC)C2)CC(=O)[C@H](C)/C=C(\C)[C@@H](O)[C@@H](OC)C(=O)[C@H](C)C[C@H](C)/C=C/C=C/C=C/1C [Example 124]	0.00316 to 0.0316 µM	0.001 to 0.01 µM	0.00316 to 0.0316 µM	–	–
CO[C@H]1C[C@@H]2CC[C@@H](C)[C@@](O)(O2)C(=O)C(=O)N2CCCC[C@H]2C(=O)O[C@H]([C@H](C)C[C@@H]2CC[C@@H](OCCCCc3cn(CCOCCOCCOCCOCCOCCOCCC(=O)NCCCCn4nc(-c5cnc6[nH]ccc6c5)c5c(N)ncnc54)nn3)[C@H](OC)C2)CC(=O)[C@H](C)/C=C(\C)[C@@H](O)[C@@H](OC)C(=O)[C@H](C)C[C@H](C)/C=C/C=C/C=C/1C [Example 68]	–	< 0.001 µM	–	0.0316 to 1 µM	0.00316 to 0.0316 µM
CO[C@H]1C[C@@H]2CC[C@@H](C)[C@@](O)(O2)C(=O)C(=O)N2CCCC[C@H]2C(=O)O[C@H]([C@H](C)C[C@@H]2CC[C@@H](O)[C@H](OC)C2)C[C@@H](O)[C@H](C)/C=C(\C)[C@@H](O)[C@@H](OC)C(=NOCc2cn(-c3cnc(N4CCN(c5ncc(C(=O)NCCOCCOCCOCCC(=O)NCCCCn6nc(-c7ccc8oc(N)nc8c7)c7c(N)ncnc76)cn5)CC4)nc3)nn2)[C@H](C)C[C@H](C)/C=C/C=C/C=C/1C [Example 193]	> 1 µM	< 0.001 µM	0.00316 to 0.0316 µM	–	–
CO[C@H]1C[C@@H]2CC[C@@H](C)[C@@](O)(O2)C(=O)C(=O)N2CCCC[C@H]2C(=O)O[C@H]([C@H](C)C[C@@H]2CC[C@@H](O)[C@H](OC)C2)C[C@@H](OC)[C@H](C)/C=C(\C)[C@@H](O)[C@@H](OC)/C(=N/OCc2cn(CCOCCOCCOCCOCCOCCOCCC(=O)NCCCCn3nc(-c4ccc5oc(N)nc5c4)c4c(N)ncnc43)nn2)[C@H](C)C[C@H](C)/C=C/C=C/C=C/1C [Example 14]	0.0316 to 1 µM	0.001 to 0.01 µM	0.00316 to 0.0316 µM	–	–
CO[C@H]1C[C@@H]2CC[C@@H](C)[C@@](O)(O2)C(=O)C(=O)N2CCCC[C@H]2C(=O)O[C@H]([C@H](C)C[C@@H]2CC[C@@H](OCCCCc3cn(CCOCCOCCOCCOCCOCCOCCOCCOCCC(=O)N4CCC(Cn5nc(-c6ccc7oc(N)nc7c6)c6c(N)ncnc65)C4)nn3)[C@H](OC)C2)CC(=O)[C@H](C)/C=C(\C)[C@@H](O)[C@@H](OC)C(=O)[C@H](C)C[C@H](C)/C=C/C=C/C=C/1C (stereo partly drawn) [Example 7]	< 0.00316 µM	< 0.001 µM	< 0.00316 µM	–	–
